The target in this assay is T1, human VR1 receptors (Homo sapiens, UniProt Q8NER1).
T1 construct: host or cells: cells that express human VR1 receptors (cell type not specified)
As to the kind of experiment: Human VR1 antagonist assay (Ca2+ imaging). The format is cell-based. Conditions: Ca2+ imaging (fura-2/AM) in cells highly expressing human VR1; agonist stimulation. An excerpt:
Human VR1 Antagonist Assay
VR1 antagonistic activity can be determined by the Ca^2+ imaging assay using human VR1 highly expressing cells. The cells that highly express human VR1 receptors are obtainable from several different conventional methods. The one standard method is cloning from human Dorsal Root Ganglion (DRG) or kidney according to the methods such as described in the journal article; Nature, 389, pp 816-824, 1997. Alternatively VR1 receptors highly expressing human keratinocytes are also known and published in the journal article (Biochemical and Biophysical Research Communications, 291, pp 124-129, 2002). […] Furthermore, the method to up regulate human VR1 gene, which is usually a silent gene or don't produce detectable level of VR1 receptors, is also available to obtain propriety cells. Such genetic modification method was described in detail; Nat. Biotechnol., 19, pp 440-445, 2001.
The cells that express human VR1 receptors were maintained in culture flask at 37° C. in an environment containing 5% CO2 until use in the assay. The intracellular Ca^2+ imaging assay to determine VR1 antagonistic activities were done by following procedures.
The culture medium was removed from the flask and fura-2/AM fluorescent calcium indicator was added to the flask at a concentration of 5 μM in the medium. The flask was placed in CO2 incubator and incubated for 1 hour. Then the cells expressing the human VR1 receptors were detached from the flask follow by washing with phosphate buffer saline, PBS(−) and re-suspended in assay buffer. The 80 μl of aliquot of cell suspension (3.75×10^5 cells/ml) was added to the assay plate and the cells were spun down by centrifuge (950 rpm, 20° C., 3 minutes).
The compounds of the examples were tested in the Human VR1 antagonist assay described above.
Capsaicin Stimulation Assay
The capsaicin-induced changes in the intracellular calcium concentration were monitored using FDSS 6000 (Hamamatsu Photonics, Japan), a fluorometric imaging system. The cell suspension in Krebs-Ringer HEPES (KRH) buffer (115 mM NaCl, 5.4 mM KCl, 1 mM MgSO4, 1.8 mM CaCl2, 11 mM D-Glucose, 25 mM HEPES, 0.96 mM Na2HPO4, pH 7.3) were pre-incubated with varying concentrations of the test compounds or KRH buffer (buffer control) for 15 minutes at room temperature under the dark condition. Then capsaicin solution, which gives 300 nM in assay mixture, was automatically added to the assay plate by the FDSS 6000.
The Acid-induced changes in the intracellular calcium concentration were monitored using FDSS 6000 (Hamamatsu Photonics, Japan), a fluorometric imaging system. The cell suspension in resting buffer (HBSS supplemented with 10 mM HEPES, pH 7.4) were pre-incubated with varying concentrations of the test compounds or resting buffer (buffer control) for 15 minutes at room temperature under the dark condition. The cells were automatically added the stimulating solution (HBSS supplemented with MES, final assay buffer pH5.8) by the FDSS 6000.
Determination of Antagonist Activity
The monitoring of the changes in the fluorescence signals (λex=340 nm/380 nm, λem=510-520 nm) was initiated at 1 minute prior to the addition of capsaicin solution or acidic buffer and continued for 5 minute.

This is an account of results in patent US8178558B2, “Substituted pyridylmethyl bicycliccarboxyamide compounds” (Pfizer Inc., priority 2006, dated 2012).

Structures are written as SMILES.

T1 sequence (Q8NER1 whole entry): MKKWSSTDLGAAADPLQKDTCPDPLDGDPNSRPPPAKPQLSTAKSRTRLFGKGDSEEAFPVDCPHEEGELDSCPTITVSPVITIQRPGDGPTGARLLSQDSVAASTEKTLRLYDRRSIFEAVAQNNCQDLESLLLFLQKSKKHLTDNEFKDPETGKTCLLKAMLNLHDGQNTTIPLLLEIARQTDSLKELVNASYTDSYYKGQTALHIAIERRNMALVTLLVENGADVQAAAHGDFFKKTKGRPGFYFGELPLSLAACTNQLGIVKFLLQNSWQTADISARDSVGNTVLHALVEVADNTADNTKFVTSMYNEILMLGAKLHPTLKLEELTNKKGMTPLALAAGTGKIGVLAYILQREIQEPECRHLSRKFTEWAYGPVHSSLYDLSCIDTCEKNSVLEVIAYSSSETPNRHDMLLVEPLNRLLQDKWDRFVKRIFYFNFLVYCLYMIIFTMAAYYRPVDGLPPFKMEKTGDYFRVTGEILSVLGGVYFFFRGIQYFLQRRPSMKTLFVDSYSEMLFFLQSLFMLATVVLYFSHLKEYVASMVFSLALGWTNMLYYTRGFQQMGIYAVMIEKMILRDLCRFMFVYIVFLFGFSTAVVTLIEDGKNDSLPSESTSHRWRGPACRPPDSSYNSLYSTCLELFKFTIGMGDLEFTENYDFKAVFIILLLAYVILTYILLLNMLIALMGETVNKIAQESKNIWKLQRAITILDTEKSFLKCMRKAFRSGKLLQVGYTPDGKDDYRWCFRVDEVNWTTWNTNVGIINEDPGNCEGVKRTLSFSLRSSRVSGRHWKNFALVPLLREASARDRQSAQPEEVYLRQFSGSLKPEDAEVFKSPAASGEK

Turning to `Cc1cc(CNC(=O)c2ccc3cc(C(C)(C)C)ccc3n2)c(C)cn1` [Example D2], the IC50 worked out at 85.1 nM. `Cc1cc([C@@H](C)NC(=O)c2ccc3cc(C(C)(C)C)ccc3c2)ccn1` [Example C3, 6-tert-butyl-N-[(1R)-1-(2-methylpyridin-4-yl)ethyl]-2-naphthamide]: the IC50 worked out at 77.5 nM.

`CC[C@@H](NC(=O)c1ccc2cc(C(C)(C)C)ccc2c1)c1ccc(C)nc1` [Example A6, (R)-6-tert-butyl-N-(1-(6-methylpyridin-3-yl)propyl)-2-naphthamide] came in with an IC50 of 261 nM. Compound `Oc1cc2c(cc1O)CN(C(=S)NCCc1ccc(Cl)cc1)CCC2` [Capsazepine, reference compound] came in with an IC50 of 237 to 455 nM. With `Cc1ccc([C@@H](C)NC(=O)c2ccc3cc(C(C)(C)C)ccc3c2)cn1` [Example A3, 6-tert-butyl-N-[(1R)-1-(6-methylpyridin-3-yl)ethyl]-2-naphthamide] the figure was 96 nM; with `Cc1ccc([C@@H](C)NC(=O)c2ccc3cc(C(C)(C)C)ccc3n2)cn1` [Example B1, 6-tert-butyl-N-[(1R)-1-(6-methylpyridin-3-yl)ethyl]quinoline-2-carboxamide], 426 nM. The compound `Cc1ccc(CNC(=O)c2ccc3cc(C(C)(C)C)ccc3c2)cn1` [Example A1, 6-tert-butyl-N-[(6-methylpyridin-3-yl)methyl]-2-naphthamide] displayed an IC50 of 250 nM. `Cc1ncc([C@@H](C)NC(=O)c2ccc3cc(C(C)(C)C)ccc3c2)cc1Cl` [Example A4, 6-tert-butyl-N-[(1R)-1-(5-chloro-6-methylpyridin-3-yl)ethyl]-2-naphthamide]: the IC50 was 271 nM.

`COc1cc(CNC(=O)c2ccc3cc(C(C)(C)C)ccc3c2)ccn1` [Example C2, 6-tert-butyl-N-[(2-methoxypyridin-4-yl)methyl]-2-naphthamide] returned an IC50 of 203 nM. On to `C[C@@H](NC(=O)c1ccc2cc(C(C)(C)C)ccc2c1)c1ccncc1` [Example C1, 6-tert-butyl-N-[(1R)-1-pyridin-4-ylethyl]-2-naphthamide], for which the IC50 amounted to 451 nM. In turn, `Cc1cc(CNC(=O)c2ccc3cc(C(C)(C)C)ccc3n2)ccn1` [Example D1] had an IC50 of 231 nM. This IC50 is about 2-fold lower than that of the compound before. `Cc1cc(CNC(=O)c2ccc3cc(C(C)(C)C)ccc3c2)c(C)cn1` [Example C4, 6-tert-butyl-N-[(2,5-dimethylpyridin-4-yl)methyl]-2-naphthamide]: the IC50 is 32.5 nM.

With `C[C@@H](NC(=O)c1ccc2cc(C(C)(C)C)ccc2c1)c1ccc(CO)nc1` [Example A5, 6-tert-butyl-N-{(1R)-1-[6-(hydroxymethyl)pyridin-3-yl]ethyl}-2-naphthamide], the IC50 stood at 127 nM.

In turn, `Cc1ccc(C(C)NC(=O)c2ccc3cc(C(C)(C)C)ccc3c2)cn1` (centres unmarked) [Example A2, 6-tert-butyl-N-[1-(6-methylpyridin-3-yl)ethyl]-2-naphthamide] gave an IC50 of 67.8 nM.
